Measured values published in patent US20230235374A1, “High Throughput Assays for Detecting Translation Readthrough Inducers” (The Trustees of the University of Pennsylvania, priority 2021, published 2023).
Where two headings read alike, the source gives them in different places. One block for each molecule: values may come before it.

Key:
[1] = tested on: Stop-POST5 complex (RFC-dependent termination); assay: smTIRF assay of RFC-dependent peptide and tRNA release; format: biochemical, shrimp (Artemia salina)
Description: Immobilization of ribosome Stop-POST 5 complexes. PEGylated flow chambers were incubated in 0.5 mg/ml streptavidin for 5 mins and washed with Buffer 4. Biotinylated Stop-POST5 containing FK(atto647)VRQ-tRNA^Gln (Cy3) in the P-site, was formed at room temperature by incubating Stop-POST4, eEF1A, GTP, and Gln-(Cy3)tRNA^Gln for 5 mins and then injected into the streptavidin-coated slide chamber. After a 5 min incubation, excess unbound ribosome was flowed out. Then eRF1/eRF3±TRIDs was injected dynamically at 3 sec while recording. The injection dead time was subtracted for each particle.
Single-molecule fluorescence imaging. All sm-TIRF studies were carried out at 24° C. All dilutions, complex formation, and single-molecule imaging were carried out in Buffer 4 with an added enzymatic oxygen scavenging system of 2 mM protocatechuic acid (PCA), 50 nM protocatechunate 3,4 dioxygenase (PCD, Sigma Aldrich), 1 mM cyclooctatetraene (COT, Sigma Aldrich), 1 mM 4-nitrobenzyl alcohol (NBA, Sigma Aldrich), and 1.5 mM 6-hydroxy-2,5,7,8-tetramethyl-chromane-2-carboxylic acid (Trolox, Sigma-Aldrich) (Flis et al., Cell reports, 25(10), 2676-2688 (2018).
Image stacks were recorded at 100 ms frame rate on a custom-built objective-type total internal reflection fluorescence (TIRF) microscope based on a commercial inverted microscope (Eclipse Ti-E, Nikon) and capable of performing alternating-laser excitation (ALEX) between 532 nm and 640 nm laser beams using an acousto-optic tunable filter (AOTF, Chen et al., 2011). For the time-lapse experiment, timing of the movies, programmed into NIS-Elements (Nikon) microscope software, were recorded by illuminating the sample for 50-20 frames at 10 frames per s with 15 s or […] intervening dark intervals. Video recording was started and then eRF1/eRF3±TRIDs was injected from a triggered syringe pump at 3 sec while recording. The injection dead time was subtracted for each particle. Triggering of the shutters, AOTF, and pump was synchronized using LabView scripts driven from the camera exposure signal.
Data analysis. Collected movies were analyzed by a custom-made software program developed as an ImageJ plugin (Chen et al., Mol. Cell, 42, 367-377 (2011)), and further analyzed using Python. Distributions of peptide and tRNA dissociation times were fit to eq (5), using maximum likelihood estimation (Bevington and Robinson. Data Reduction and Error Analysis for the Physical Sciences. New York: McGraw-Hill, (2002); Woody et al., Biophys. J. 111, 273-282 (2016)), where P is the probability density.
smTIRF results using Atto(pep)-Cy-Stop-POST5 attached to surface-immobilized ribosomes. Although the distance between the two fluorophores is not close enough to produce FRET, fluorescent pairs could be identified by co-localization on the slide under alternating 532 nm and 640 nm total internal reflection fluorescence (TIRF) illumination. This permits near-simultaneous monitoring of the dynamics of peptide and P-site tRNA release from the Stop-POST5 complex following RFC binding.
To reduce photobleaching of each fluorophore, time-lapse movies were recorded with bursts of 20 or 50 frames at 100 ms frame intervals interleaved by 20 s intervals with the lasers shuttered. Total recording time for each trial was 20 min.
FIG. 8A and FIG. 8C show typical frame by frame recordings indicating a loss of signal for both labeled peptide and labeled tRNA after the addition of the RFC to Atto(pep)-Cy(tRNA)-Stop-POST5. Either peptide (a) or tRNA (b) can dissociate first, in approximately equal proportions. Photobleaching of Cy3-labeled tRNA and Atto647-labeled peptide in the absence of eRF1/eRF3 was much slower (FIG. 8E and FIG. 8F). Under the time lapse illumination employed, mean lifetimes for Atto647-peptide and Cy3-tRNA at 0.32 μM eRF1 and 2 μM eRF3 were each 2.45 min. […]

[2] = tested on: Stop-POST5 complex (RFC-dependent termination); assay: as above; format: biochemical, shrimp (Artemia salina); settings: saturating RFC (0.65 μM eRF1, 1.3 μM eRF3)
[3] = tested on: Atto(pep)-Stop-POST5 (RFC-dependent termination); assay: Plate reader fluorescence anisotropy assay of pentapeptide release; format: biochemical, shrimp (Artemia salina); settings: absence of ataluren
Description: Plate reader assays were run in a Tecan F200® 96-well plate reader (Greiner® black, non-binding, chimney flat) equipped with 640 nm excitation and 700 nm polarization filters using 96-well plates. Atto(pep)-Stop-POST5 in Buffer 4 (0.1 μM, 80 μl) containing GTP (1 mM) was added to plate wells±ataluren at 25° C. eRF1 and eRF3 aliquots stored at −80° C. were thawed for 15 s at 37° C. and added directly to a premade ice-cold GTP (1 mM)±ataluren solution in Buffer 4. The resulting release factor solution was incubated at 25° C. for 1 min, and then added quickly in 80 μL portions to the Atto(pep)-Stop-POST5 containing wells with a multichannel pipette to the Atto(pep)-Stop-Posts wells. The final concentrations were: eRF1, 0.025-0.4 μM; eRF3, 0.8 μM; Atto(pep)-Stop-Posts, 0.05 μM. Fluorescence anisotropy decay graphs were fit with GraphPad Prism, using the one phase decay model to obtain peptide dissociation rates.
Ensemble fluorescence anisotropy results using Atto(pep)-Stop-POST5. The fluorescence anisotropy of the pentapeptidyl moiety of Atto(pep)-Stop-POST5 was quite high (0.22), and decreased following addition of RFC, providing a convenient measure of the rate of pentapeptide release from the ribosome. […] Each such time dependency could be fit to a single exponential, giving the collected rate constants presented in FIG. 9G, in which the rate dependence as a function of RFC concentration was measured at 0, 200, 500, and 1,000 μM ataluren. In the absence of ataluren, EC50 (0.029±0.002 μM) and Vmax (0.31±0.02) values were obtained for pentapeptide release similar to those measured by smTIRF. In addition, as with the smTIRF results, Vmax values were unaffected by added ataluren but EC50 values increased, reaching ˜0.06 μM at 1000 μM.

Trp-PRE6 complex = assay: smFRET translocation of Trp-PRE6 to Trp-POST6; format: biochemical; settings: 23° C.
From the text: Changes in FRET (FIGS. 16E-16G) were used to determine the rate of translocation (FIG. 16H) and the residence time of deacylated tRNA dissociation from the E-site (FIG. 16I) as functions of [eEF2.GTP].

[4] = 0.32 μM eRF1 and 2 μM eRF3, time lapse illumination
[5] = absence of ataluren, Michaelis-Menten fit

EC50 ([1]; absence of ataluren, read-out: EC50, peptide dissociation): ~20 nM | EC50 ([1]; absence of ataluren, read-out: EC50, tRNA dissociation): ~20 nM | EC50 [3]: 29 ± 2 nM
Molecule: RFC: release factor complex of eRF1 and eRF3 with GTP catalysing termination
mean lifetime, Atto647-peptide [1, 4]: 2.45 min | mean lifetime, Cy3-tRNA [1, 4]: 2.45 min | peptide release rate constants, As 2nd product ([1]; [RFC] 0.016 μM): 0.12 ± 0.03 min⁻¹ | peptide release rate constants, Overall ([1]; [RFC] 0.016 μM): 0.13 ± 0.02 min⁻¹ | tRNA release rate constants, As 2nd product ([1]; [RFC] 0.016 μM): 0.086 ± 0.023 min⁻¹ | tRNA release rate constants, Overall ([1]; [RFC] 0.016 μM): 0.10 ± 0.02 min⁻¹ | peptide release rate constants, As 2nd product ([1]; [RFC] 0.032 μM): 0.15 ± 0.02 min⁻¹ | peptide release rate constants, Overall ([1]; [RFC] 0.032 μM): 0.16 ± 0.02 min⁻¹ | tRNA release rate constants, As 2nd product ([1]; [RFC] 0.032 μM): 0.063 ± 0.021 min⁻¹ | tRNA release rate constants, Overall ([1]; [RFC] 0.032 μM): 0.12 ± 0.02 min⁻¹ | peptide release rate constants, As 2nd product ([1]; [RFC] 0.080 μM): 0.15 ± 0.02 min⁻¹ | peptide release rate constants, Overall ([1]; [RFC] 0.080 μM): 0.21 ± 0.02 min⁻¹ | tRNA release rate constants, As 2nd product ([1]; [RFC] 0.080 μM): 0.12 ± 0.02 min⁻¹ | tRNA release rate constants, Overall ([1]; [RFC] 0.080 μM): 0.17 ± 0.03 min⁻¹ | peptide release rate constants, As 2nd product ([1]; [RFC] 0.166 μM): 0.19 ± 0.02 min⁻¹ | peptide release rate constants, Overall ([1]; [RFC] 0.166 μM): 0.24 ± 0.01 min⁻¹ | tRNA release rate constants, As 2nd product ([1]; [RFC] 0.166 μM): 0.14 ± 0.03 min⁻¹ | tRNA release rate constants, Overall ([1]; [RFC] 0.166 μM): 0.18 ± 0.02 min⁻¹ | peptide release rate constants, As 2nd product ([1]; [RFC] 0.32 μM): 0.24 ± 0.03 min⁻¹ | peptide release rate constants, Overall ([1]; [RFC] 0.32 μM): 0.26 ± 0.02 min⁻¹ | tRNA release rate constants, As 2nd product ([1]; [RFC] 0.32 μM): 0.17 ± 0.03 min⁻¹ | tRNA release rate constants, Overall ([1]; [RFC] 0.32 μM): 0.20 ± 0.02 min⁻¹ | peptide release rate constants, As 2nd product ([1]; [RFC] 0.65 μM): 0.23 ± 0.04 min⁻¹ | peptide release rate constants, Overall ([1]; [RFC] 0.65 μM): 0.27 ± 0.03 min⁻¹ | tRNA release rate constants, As 2nd product ([1]; [RFC] 0.65 μM): 0.23 ± 0.04 min⁻¹ | tRNA release rate constants, Overall ([1]; [RFC] 0.65 μM): 0.21 ± 0.03 min⁻¹ | peptide release rate constants, As 2nd product ([1]; [RFC] 1.61 μM): 0.25 ± 0.03 min⁻¹ | peptide release rate constants, Overall ([1]; [RFC] 1.61 μM): 0.26 ± 0.02 min⁻¹ | tRNA release rate constants, As 2nd product ([1]; [RFC] 1.61 μM): 0.15 ± 0.02 min⁻¹ | tRNA release rate constants, Overall ([1]; [RFC] 1.61 μM): 0.20 ± 0.02 min⁻¹ | Vmax, peptide dissociation [1, 5]: ~0.27 ± 0.02 min⁻¹ | Vmax, tRNA dissociation [1, 5]: 0.20 ± 0.02 min⁻¹ | rate constant, Atto(pep)-Cy(rbsm)-Stop-POST5 [2]: 0.26 ± 0.03 min⁻¹ | rate constant, Atto(rbsm)-Cy(tRNA)-Stop-POST5 [2]: 0.20 ± 0.03 min⁻¹ | Vmax, pentapeptide release [3]: 0.31±0.02

B1: eEF2: yeast eukaryotic elongation factor 2 (protein, UniProt P32324 1-842, looked up)
Elongation factor 2: MVAFTVDQMRSLMDKVTNVRNMSVIAHVDHGKSTLTDSLVQRAGIISAAKAGEARFTDTRKDEQERGITIKSTAISLYSEMSDEDVKEIKQKTDGNSFLINLIDSPGHVDFSSEVTAALRVTDGALVVVDTIEGVCVQTETVLRQALGERIKPVVVINKVDRALLELQVSKEDLYQTFARTVESVNVIVSTYADEVLGDVQVYPARGTVAFGSGLHGWAFTIRQFATRYAKKFGVDKAKMMDRLWGDSFFNPKTKKWTNKDTDAEGKPLERAFNMFILDPIFRLFTAIMNFKKDEIPVLLEKLEIVLKGDEKDLEGKALLKVVMRKFLPAADALLEMIVLHLPSPVTAQAYRAEQLYEGPADDANCIAIKNCDPKADLMLYVSKMVPTSDKGRFYAFGRVFAGTVKSGQKVRIQGPNYVPGKKDDLFIKAIQRVVLMMGRFVEPIDDCPAGNIIGLVGIDQFLLKTGTLTTSETAHNMKVMKFSVSPVVQVAVEVKNANDLPKLVEGLKRLSKSDPCVLTYMSESGEHIVAGTGELHLEICLQDLEHDHAGVPLKISPPVVAYRETVESESSQTALSKSPNKHNRIYLKAEPIDEEVSLAIENGIINPRDDFKARARIMADDYGWDVTDARKIWCFGPDGNGPNLVIDQTKAVQYLHEIKDSVVAAFQWATKEGPIFGEEMRSVRVNILDVTLHADAIHRGGGQIIPTMRRATYAGFLLADPKIQEPVFLVEIQCPEQAVGGIYSVLNKKRGQVVSEEQRPGTPLFTVKAYLPVNESFGFTGELRQATGGQAFPQMVFDHWSTLGSDPLDPTSKAGEIVLAARKRHGMKEEVPGWQEYYDKL
kcat, translocation (Trp-PRE6 complex): 1.0 s⁻¹ | Km (Trp-PRE6 complex; read-out: Km^eEF2, translocation): 0.28 µM
